The source of these data is patent publication EP0381527A1, “Ouabain like compounds and pharmaceutical compositions containing them” (YISSUM RESEARCH DEVELOPMENT COMPANY OF THE HEBREW …, priority 1989, dated 1990).

Experiment [1] has as its system Na,K-ATPase. Nature of the experiment: Inhibition of [3H]-ouabain binding to rat brain synaptosomal fraction (filtration). The conditions noted are these: Figure 10; result in words. The protocol:
Assays for Digitalis-Like Activity: • The digitalis-like activity of each fraction obtained in the course of the purification was determined quantitatively using at least two of the following bioassays: • a. Inhibition of [^3H]-ouabain binding: • The binding of [^3H]-ouabain to rat brain synaptosomal fraction was carried out by a conventional filtration technique as previously described (Lichtstein D., et al., Life Sci. 38: 1261-1270 (1986)). In brief: The reaction mixture (500µl final volume) contained the following constituents (final concentrations): 50 mM Tris-HCI buffer (pH 7.4), 0.5 mM EDTA, 80 mM NaCI, 4 mM MgSO4, 2 mM ATP (Tris, vanadium-free) and 32 nM [^3H]-ouabain (19.5 Ci/mmol). […] The filters were washed two times with 3 ml volumes of the same Tris buffer, dried and assayed for radioactivity in a Packard liquid scintillation counter at a counting efficiency of approximately 50%. Specific binding was calculated by subtracting the binding observed in the presence of 100 µM unlabeled ouabain from that observed in the absence of unlabeled ouabain. […] Inhibition of Na, K-ATPase activity: • Na,K-ATPase activity in rat brain microsomal fraction was determined as previously described (Lichtstein D., et al., Life Sci. 38: 1261-1270 (1986)). […]

The subject of experiment [2] is Na,K-ATPase. Nature of the experiment: Inhibition of Na,K-ATPase activity in rat brain microsomal fraction (colorimetric inorganic phosphate). The experiment is classed as biochemical. The protocol: Assays for Digitalis-Like Activity: • The digitalis-like activity of each fraction obtained in the course of the purification was determined quantitatively using at least two of the following bioassays: • a. Inhibition of [^3H]-ouabain binding: • The binding of [^3H]-ouabain to rat brain synaptosomal fraction was carried out by a conventional filtration technique as previously described (Lichtstein D., et al., Life Sci. 38: 1261-1270 (1986)). In brief: The reaction mixture (500µl final volume) contained the following constituents (final concentrations): 50 mM Tris-HCI buffer (pH 7.4), 0.5 mM EDTA, 80 mM NaCI, 4 mM MgSO4, 2 mM ATP (Tris, vanadium-free) and 32 nM [^3H]-ouabain (19.5 Ci/mmol). Reactions were initiated by the addition of 200 µl of crude synaptosomal fraction resulting in a final protein concentration of 200 µg per reaction. Following incubation for 1 hr. at 37° C, the reactions were terminated by the addition of 3 ml cold (4°C) 50 mM Tris-HCI (pH 7.4) and filtered over Whatman GF/B filters. The filters were washed two times with 3 ml volumes of the same Tris buffer, dried and assayed for radioactivity in a Packard liquid scintillation counter at a counting efficiency of approximately 50%. Specific binding was calculated by subtracting the binding observed in the presence of 100 µM unlabeled ouabain from that observed in the absence of unlabeled ouabain. Specific binding represented 93% of the total binding under control conditions. • b. Inhibition of Na, K-ATPase activity: • Na,K-ATPase activity in rat brain microsomal fraction was determined as previously described (Lichtstein D., et al., Life Sci. 38: 1261-1270 (1986)). Enzyme activity was measured by the colorimetric determination of inorganic phosphate after the incubation of microsomes (200 µg protein per reaction) at 37 C in a solution (final volume 500 µl) containing (final concentrations) 34 mM Tris-HCI (pH 7.4), 100 mM NaCl, 20 mM KCI, 4 Mm MgC12 and 4 mM ATP (Tris, vanadium free). After preincubation for 10 min., the ATP was added to initiate the reaction. Reactions were terminated by the addition of 100 µl of 5% trichloroacetic acid and.the precipitate was removed by centrifugation. Na,K-independent ATPase activity was determined by omitting Na^+ and K^+ from the reaction mixture or by the addition of 1 mM ouabain to the complete assay mixture. • c. Inhibition of ^86Rb uptake to N1E115 cells: • Neuroblastoma N1E115 cells were grown in MEM (Modified Eagle's Medium) medium. Cells were removed from their growth flask by raising and lowering the medium with a pipette and centrifuged at 100 x g in a Sorval RC-5 centrifuge for 10 minutes. The pellet was resuspended in MEM. 86Rb-uptake was initiated by the addition of N1E115 cells to MEM which contained ^86Rb tracer (1 µCi). Uptake was terminated after 1 min. by the addition of 1.5 ml ice cold 125 mM MgC12 solution followed by 1 min. centrifugation in an Eppendorf centrifuge. The Eppendorf tube was cut and the pellet removed and transferred to a scintilation vial, to which 6 ml of Emulsifier Scintillator 299TM (Packard) were added and radioactivity was determined.

As to `CCCC=CC(O)CC(O)CCCCCCCCCC(=O)O` (single isomer, unassigned) [DLC-II, 11,13-dihydroxy-14-octadecaenoic acid], in the experiment with Na,K-ATPase [1], the “inhibition of [^3H]-ouabain binding” value was “inhibit [^3H]-ouabain binding in a dose dependent mode”. Further, the “Na+, K+-ATPase activity (% of control)” value with Na,K-ATPase [2] (amount 1 (arbitrary units)) was 90 % of control; in the experiment on Na,K-ATPase [2] (amount 2 (arbitrary units)), 67 % of control; with Na,K-ATPase [2] (amount 3 (arbitrary units)) it was 71 % of control; in the experiment on Na,K-ATPase [2] (amount 5 (arbitrary units)), 51 % of control; in the experiment with Na,K-ATPase [2] (amount 8 (arbitrary units)), 10 % of control.
